Assay results reported in patent US10774052B2, “Heteroaryl compounds and uses thereof” (Celgene CAR LLC, priority 2013, dated 2020).
Entries after “also recorded” stand apart in the source; their conditions may differ. Read-outs that look alike come from different tables or passages of the source.

Assays:
Type in all cases: cell-based
[1] = system: pFGFR4 in MDA-MB-453 cells; assay: FGFR4 signaling, pFGFR4 (MDA); Western blot (Method A), MSD (Method B), ELISA (Method C); details: Homo sapiens
pFGFR4 in Huh7 cells = assay: FGFR4 signaling, pFGFR4 (Huh); MSD (Method B); details: Homo sapiens
[2] = system: pFGFR4 in MDA-MB-453 cells; assay: Washout experiment (duration of action on pFGFR4); details: 1000-2000 nM for 1 hr, washed, up to 24 hr
Method: The cells were allowed to settle down for 4 hrs and were then maintained in low-serum (0.1% FBS) media overnight.
The following morning, the media was removed and the cells were treated with 1000-2000 nM of test compound in low-serum media for 1 hr. The cells were washed free of test compound (3×) with PBS (Invitrogen). One set of cells was immediately lysed as indicated above as the 0 hr time point. The remaining cells were incubated with the appropriate complete growth media (10-20% FBS) for 1, 2, 4, 8, 16 (in certain circumstances) and 24 hr. DMSO (0.5%) controls were collected at all time points.

[3] = MDA-MB-453 cells, Method B (MSD) for signaling EC50 determination
[4] = Huh-7, Huh7 cells, read-out: Signaling EC50 (nM) pFGFR4 (Huh)
[5] = MDA-MB-453, MDA-MB-453 cells, Method B (MSD) for signaling EC50 determination

| Structure (SMILES) | EC50 [1, 3] [nM] | EC50 (pFGFR4 in Huh7 cells; [4]) [nM] | further results |
| --- | --- | --- | --- |
| C=CC(=O)NC1CCCCC1Nc1ncc2c(n1)N(Cc1cscn1)C(=O)N(c1c(Cl)c(OC)cc(OC)c1Cl)C2 (racemic) [Compound I-69] | < 100 |  | EC50 (pFGFR4 in Huh7 cells; Huh-7, read-out: Signaling EC50 (nM) pFGFR4 (Huh)): 101 to 500 nM; duration of action against pFGFR4 signalling post washout [2]: prolonged inhibition of autophosphorylation of FGFR4; also recorded: prolonged duration of action |
| C=CC(=O)Nc1ccccc1Nc1ncc2c(n1)N(Cc1cccc(NC(=O)CC)c1)C(=O)N(c1c(Cl)c(OC)cc(OC)c1Cl)C2 [Compound I-1] | < 100 | < 100 | duration of action against pFGFR4 signalling post washout [2]: prolonged duration of action; also recorded: has PDA |
| C=CC(=O)Nc1ccccc1Nc1ncc2c(n1)N(CCOC)C(=O)N(c1cc(OC)cc(OC)c1)C2 [Compound I-59] | 101 to 500 | 101 to 500 |  |
| C=CC(=O)Nc1ccccc1Nc1ncc2c(n1)N(Cc1cscn1)C(=O)N(c1cc(OC)cc(OC)c1)C2 [Compound I-64] | 101 to 500 | 101 to 500 |  |
| C=CC(=O)Nc1ccccc1Nc1ncc2c(n1)N(C)C(=O)N(c1c(Cl)cccc1Cl)C2 [Compound I-83] | 101 to 500 | 101 to 500 |  |
| C=CC(=O)Nc1ccccc1Nc1ncc2c(n1)N(Cc1ccnc(N)c1)C(=O)N(c1cc(OC)cc(OC)c1)C2 [Compound I-87] | < 100 | < 100 |  |
| C=CC(=O)Nc1ccccc1Nc1ncc2c(n1)N(C1COC1)C(=O)N(c1cc(OC)cc(OC)c1)C2 [Compound I-88] | 101 to 500 | 101 to 500 |  |
| C=CC(=O)Nc1ccccc1Nc1ncc2c(n1)N(Cc1cccc(C(N)=O)c1)C(=O)N(c1cc(OC)cc(OC)c1)C2 [Compound I-97] | 101 to 500 | 101 to 500 |  |
| C=CC(=O)Nc1ccccc1Nc1ncc2c(n1)N(CC1CC1)C(=O)N(c1cc(OC)cc(OC)c1)C2 [Compound I-98] | < 100 | < 100 |  |
| C=CC(=O)Nc1ccccc1Nc1ncc2c(n1)N(CC(F)F)C(=O)N(c1cc(OC)cc(OC)c1)C2 [Compound I-99] | 101 to 500 | 101 to 500 |  |
| C=CC(=O)Nc1ccccc1Nc1ncc2c(n1)N(CC1CC1)C(=O)N(c1cc(OC)cc(OC)c1Cl)C2 [Compound I-100] | < 100 | < 100 |  |
| C=CC(=O)Nc1ccccc1Nc1ncc2c(n1)N(CCF)C(=O)N(c1cc(OC)cc(OC)c1)C2 [Compound I-102] | 101 to 500 | < 100 |  |
| C=CC(=O)Nc1ccccc1Nc1ncc2c(n1)N(CC(F)F)C(=O)N(c1cc(OC)cc(OC)c1Cl)C2 [Compound I-104] | < 100 | < 100 |  |
| C=CC(=O)Nc1ccccc1Nc1ncc2c(n1)N(CCF)C(=O)N(c1cc(OC)cc(OC)c1Cl)C2 [Compound I-110] | < 100 | < 100 |  |
| C=CC(=O)NC1CCCCC1Nc1ncc2c(n1)N(CC(F)F)C(=O)N(c1c(F)c(OC)cc(OC)c1F)C2 (stereo not drawn) [Compound I-115] | 101 to 500 | 101 to 500 |  |
| C=CC(=O)Nc1ccccc1Nc1ncc2c(n1)N(CC(F)F)C(=O)N(c1c(F)c(OC)cc(OC)c1F)C2 [Compound I-116] | < 100 | < 100 |  |
| C=CC(=O)Nc1nn(C)cc1Nc1ncc2c(n1)N(C)C(=O)N(c1c(Cl)c(OC)cc(OC)c1Cl)C2 [Compound I-117] | < 100 | < 100 |  |
| C=CC(=O)Nc1ccccc1Nc1ncc2c(n1)N(Cc1cn[nH]c1)C(=O)N(c1cc(OC)cc(OC)c1)C2 [Compound I-121] | < 100 | < 100 |  |

| Structure (SMILES) | EC50 [1, 3] [nM] | EC50 (pFGFR4 in Huh7 cells; [4]) [nM] | further results |
| --- | --- | --- | --- |
| C=CC(=O)Nc1ccccc1Nc1ncc2c(n1)N(Cc1cn[nH]c1)C(=O)N(c1c(Cl)c(OC)cc(OC)c1Cl)C2 [Compound I-124] | < 100 | < 100 |  |
| C=CC(=O)Nc1ccccc1Nc1ncc2c(n1)NC(=O)N(c1cc(OC)cc(OC)c1)C2 [Compound I-125] |  | > 1000 | EC50 [1, 5]: 501 to 999 nM |
| C=CC(=O)NC1COCC1Nc1ncc2c(n1)N(C)C(=O)N(c1c(Cl)c(OC)cc(OC)c1Cl)C2 (stereo not drawn) [Compound I-126] |  | < 100 | EC50 [1, 5]: < 100 nM |
| C=CC(=O)Nc1ccccc1Nc1ncc2c(n1)N(C)C(=O)N(c1c(F)c(OC)cc(OC)c1F)C2 [Compound I-131] | < 100 | < 100 |  |
| C=CC(=O)NC1CCCCC1Nc1ncc2c(n1)N(Cc1ccn(C)c(=O)c1)C(=O)N(c1c(Cl)c(OC)cc(OC)c1Cl)C2 (stereo not drawn) [Compound I-132] | 101 to 500 | 101 to 500 |  |
| C=CC(=O)NC1CCCCC1Nc1ncc2c(n1)N(Cc1ccnc(N)c1)C(=O)N(c1c(Cl)c(OC)cc(OC)c1Cl)C2 (stereo not drawn) [Compound I-133] | < 100 | < 100 |  |
| C=CC(=O)NC1CCCCC1Nc1ncc2c(n1)N(Cc1csc(C)n1)C(=O)N(c1c(Cl)c(OC)cc(OC)c1Cl)C2 (stereo not drawn) [Compound I-137] | 101 to 500 | 101 to 500 |  |
| C=CC(=O)N[C@H]1COCC[C@H]1Nc1ncc2c(n1)N(C)C(=O)N(c1c(Cl)c(OC)cc(OC)c1Cl)C2 [Compound I-140] | 101 to 500 | 101 to 500 |  |
| C=CC(=O)N[C@H]1CCCC[C@H]1Nc1ncc2c(n1)N(C)C(=O)N(c1c(F)c(OC)cc(OC)c1F)C2 [Compound I-143] | 101 to 500 | 101 to 500 |  |
| C=CC(=O)Nc1cc(-c2nnn(C)n2)ccc1Nc1ncc2c(n1)N(C)C(=O)N(c1cc(OC)cc(OC)c1)C2 [Compound I-146] | 101 to 500 | 101 to 500 |  |
| C=CC(=O)Nc1cc(C(=O)NC2CCN(C)CC2)ccc1Nc1ncc2c(n1)N(C)C(=O)N(c1cc(OC)cc(OC)c1)C2 [Compound I-151] | 501 to 999 | > 1000 |  |
| C=CC(=O)Nc1cc(-c2nnnn2C)ccc1Nc1ncc2c(n1)N(C)C(=O)N(c1c(Cl)c(OC)cc(OC)c1Cl)C2 [Compound I-153] | < 100 | < 100 |  |
| C=CC(=O)Nc1ccccc1Nc1ncc2cc(-c3cc(OC)cc(OC)c3)c(N)nc2n1 [Compound I-155] | 101 to 500 | > 1000 |  |
| C=CC(=O)N[C@@H]1COC[C@@H]1Nc1ncc2c(n1)N(C)C(=O)N(c1c(Cl)c(OC)cc(OC)c1Cl)C2 [Compound I-185] |  | > 1000 | EC50 [1, 5]: 101 to 500 nM |
| C=CC(=O)N[C@H]1COC[C@H]1Nc1ncc2c(n1)N(C)C(=O)N(c1c(Cl)c(OC)cc(OC)c1Cl)C2 [Compound I-186] |  | < 100 | EC50 [1, 5]: < 100 nM |
| CCC(=O)Nc1cccc(CN2C(=O)N(c3c(Cl)c(OC)cc(OC)c3Cl)Cc3cnc(Nc4ccccc4NC(=O)CC)nc32)c1 [Compound I-234] |  |  | EC50 ([1]; MDA-MB-453 cells, Method A (Western blot) for signaling EC50 determination): 101 to 500 nM; duration of action against pFGFR4 signalling post washout [2]: does not show prolonged duration of action; also recorded: does not have PDA |
| COc1cc(OC)c(Cl)c(N2Cc3cnc(Nc4ccccc4)nc3N(C)C2=O)c1Cl [Compound I-238] | < 100 | < 100 |  |
